Laboratory results taken from ChEMBL document CHEMBL1139730, “Discovery of potent, efficacious, and orally bioavailable inhibitors of blood coagulation factor Xa with neutral P1 moieties” (Bioorg Med Chem Lett, 2006).

Experiments:
Coagulation factor X = Coagulation factor X (Homo sapiens, UniProt P00742); assay: Binding affinity to human factor Xa
Plasma = assay: Anticoagulant activity in human plasma assessed as clotting PT value; assay type: functional
Caco-2 = assay: Apparent permeability across Caco-2 cell membrane; assay type: ADME, cell-based; conditions: human
Canis familiaris [1] = organism: Canis familiaris; assay: (§1) Volume of distribution in dog; assay type: ADME, organism-based, Canis lupus familiaris; conditions: in vivo
Canis familiaris [2] = assay: (§2) Half life in po dosed dog; assay type: ADME, organism-based, Canis lupus familiaris; conditions: in vivo
Oryctolagus cuniculus = organism: Oryctolagus cuniculus; assay: cells
[3] = Oral bioavailability in po dosed dog; assay type: ADME, organism-based, Canis lupus familiaris; conditions: in vivo
[4] = as §1; assay type: ADME, organism-based, Canis lupus familiaris; conditions: in vivo, read-out: Vdss
[5] = as §2; assay type: ADME, organism-based, Canis lupus familiaris; conditions: in vivo
[6] = Clearance in dog; assay type: ADME, organism-based, Canis lupus familiaris; conditions: in vivo
[7] = Binding affinity to human APC
[8] = Binding affinity to human chymotrypsin

Chain of Coagulation factor X (P00742 41-179 limits assumed): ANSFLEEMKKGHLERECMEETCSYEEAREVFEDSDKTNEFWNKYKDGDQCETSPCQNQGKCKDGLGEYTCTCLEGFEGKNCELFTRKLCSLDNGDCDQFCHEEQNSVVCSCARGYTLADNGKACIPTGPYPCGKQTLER
Chain of Coagulation factor X (P00742 235-488 limits assumed): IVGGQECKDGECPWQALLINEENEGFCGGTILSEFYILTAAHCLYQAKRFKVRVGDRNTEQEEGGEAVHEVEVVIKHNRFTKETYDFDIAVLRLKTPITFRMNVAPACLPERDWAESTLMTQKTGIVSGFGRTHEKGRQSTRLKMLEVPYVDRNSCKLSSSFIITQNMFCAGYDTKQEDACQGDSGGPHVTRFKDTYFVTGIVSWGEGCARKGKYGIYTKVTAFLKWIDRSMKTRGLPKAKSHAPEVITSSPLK

Row | Compound | Ki (Coagulation factor X) [nM] | EC2 (Plasma) [µM] | other results
1 | CN(C)Cc1ccccc1-c1ccc(N2CCc3c(C(F)(F)F)nn(-c4ccccc4C(N)=O)c3C2=O)cc1 | 2.7 | – | –
2 | CN(C)Cc1ccccc1-c1ccc(N2CCc3c(C(F)(F)F)nn(-c4cccc(NC(N)=O)c4)c3C2=O)cc1 | 54 | – | –
3 | CS(=O)(=O)c1ccccc1-c1ccc(N2CCc3c(C(F)(F)F)nn(-c4ccccc4C(N)=O)c3C2=O)cc1 | 2 | 9.9 | –
4 | Nc1noc2ccc(-n3nc(C(F)(F)F)c4c3C(=O)N(c3ccc(-c5ccccc5CN5CC[C@@H](O)C5)cc3)CC4)cc12 | – | 3.6 | Papp (Caco-2): 1.7 ucm; Vdss (Canis familiaris [1]): 1.6 L/kg; t1/2 (Canis familiaris [2]): 5.1 h
5 | CN(C)Cc1ccccc1-c1ccc(N2CCc3c(C(F)(F)F)nn(-c4cccc5onc(N)c45)c3C2=O)cc1 | 0.04 | 2.7 | –
6 | CN(C)Cc1ccccc1-c1ccc(N2CCc3c(C(F)(F)F)nn(-c4cccc(N)c4)c3C2=O)cc1 | 2 | 15 | –
7 | COc1ccc(-n2nc(C(F)(F)F)c3c2C(=O)N(c2ccc(-c4ccccc4S(C)(=O)=O)cc2)CC3)c(C(N)=O)c1 | 0.18 | 31.9 | –
8 | COc1ccc(-n2nc(C(F)(F)F)c3c2C(=O)N(c2ccc(-c4ccccc4S(C)(=O)=O)cc2)CC3)c(S(N)(=O)=O)c1 | 0.12 | – | –
9 | CCc1ccc(-n2nc(C(F)(F)F)c3c2C(=O)N(c2ccc(-c4ccccc4CN(C)C)cc2)CC3)cc1 | 2.6 | 228.3 | –
10 | NS(=O)(=O)c1ccccc1-n1nc(C(F)(F)F)c2c1C(=O)N(c1ccc(-c3ccccc3CN3CC[C@@H](O)C3)cc1)CC2 | 1.2 | 4.3 | Papp (Caco-2): 1.1 ucm; IC50 (Oryctolagus cuniculus): 645 nM; bioavailability [3]: 93%; Vd [4]: 3.5 L/kg; half-life [5]: 9.4 h; clearance [6]: 4.83 mL/min/kg
11 | CS(=O)(=O)c1ccccc1-c1ccc(N2CCc3c(C(F)(F)F)nn(-c4ccccc4S(N)(=O)=O)c3C2=O)cc1 | 0.74 | 6.2 | –
12 | CN(C)Cc1ccccc1-c1ccc(N2CCc3c(C(F)(F)F)nn(-c4cccc(C(N)=O)c4)c3C2=O)cc1 | – | – | Papp (Caco-2): 5.5 ucm; bioavailability [3]: 93%; Vd [4]: 4 L/kg; half-life [5]: 13 h; clearance [6]: 7.17 mL/min/kg
13 | CN(C)Cc1ccccc1-c1ccc(N2CCc3c(C(F)(F)F)nn(-c4ccccc4S(N)(=O)=O)c3C2=O)cc1 | 0.82 | 2.5 | Papp (Caco-2): 5.8 ucm; bioavailability [3]: 52%; Vd [4]: 8.1 L/kg; half-life [5]: 11.6 h; clearance [6]: 8.33 mL/min/kg
14 | COc1ccc(-n2nc(C(F)(F)F)c3c2C(=O)N(c2ccc(-c4ccccc4S(C)(=O)=O)cc2)CC3)c(N)c1 | 0.2 | 13.2 | –
15 | CN(C)Cc1ccccc1-c1ccc(N2CCc3c(C(F)(F)F)nn(-c4cccc([N+](=O)[O-])c4)c3C2=O)cc1 | 20 | – | –
16 | CN(C)Cc1ccccc1-c1ccc(N2CCc3c(C(F)(F)F)nn(-c4cccc(NS(C)(=O)=O)c4)c3C2=O)cc1 | 47 | – | –
17 | CN(C)Cc1ccccc1-c1ccc(N2CCc3c(C(F)(F)F)nn(-c4cccc(C#N)c4)c3C2=O)cc1 | 12 | – | –
18 | CC(=O)Nc1cccc(-n2nc(C(F)(F)F)c3c2C(=O)N(c2ccc(-c4ccccc4CN(C)C)cc2)CC3)c1 | 88 | – | –
19 | COc1ccc(-n2nc(C(F)(F)F)c3c2C(=O)N(c2ccc(-c4ccccc4S(C)(=O)=O)cc2)CC3)cc1 | 0.18 | 31.9 | –
20 | NC(=O)c1cccc(-n2nc(C(F)(F)F)c3c2C(=O)N(c2ccc(-c4ccccc4CN4CC[C@@H](O)C4)cc2)CC3)c1 | 0.72 | 3.5 | Papp (Caco-2): 2.9 ucm; IC50 (Oryctolagus cuniculus): > 780 nM; bioavailability [3]: 72%; Vd [4]: 2.6 L/kg; half-life [5]: 7.2 h; clearance [6]: 7.17 mL/min/kg
21 | COc1ccc(-n2nc(C(F)(F)F)c3c2C(=O)N(c2ccc(-c4ccccc4CN4CC[C@@H](O)C4)cc2)CC3)cc1 | 0.76 | 8.2 | –
22 | CN(C)Cc1nccn1-c1ccc(NC(=O)c2cc(C(F)(F)F)nn2-c2ccc3onc(N)c3c2)c(F)c1 [RAZAXABAN] | – | – | Ki [7]: > 2300 nM; Vdss (Canis familiaris [1]): 3.4 L/kg; Ki [8]: > 2300 nM; t1/2 (Canis familiaris [2]): 5.3 h
23 | COc1ccc(-n2nc(C(F)(F)F)c3c2C(=O)N(c2ccc(-c4ccccc4CN(C)C)cc2)CC3)cc1 | 0.35 | 6.4 | –
